This note sets out measurements from US20230158025A1 (UNIVERSITY OF UTAH RESEARCH FOUNDATION, priority 2020, published 2023).

For one data set, the target named is recombinant human GALK1 (Homo sapiens, UniProt P51570). As to the kind of experiment: hGALK1 biochemical activity assay (Kinase-Glo Plus, ATP depletion). As for the experimental part: In vitro hGALK1 activity assays were performed as previously described. Liu et al., Bioorg. Med. Chem. Lett. 25(3): 721-727 (2015), which is incorporated by reference herein for the specific teachings thereof. The biochemical assay was performed by coupling the activity of recombinant human or mouse GALK1 to the Kinase-Glo Plus luminescent ATP detection kit, using ATP depletion as a measure of GALK1 turnover. Specifically, three μL/well of ATP substrate solution (35 μM ATP) in assay buffer (20 mM HEPES pH 8.0, 5 mM MgCl2, 60 mM NaCl, 1 mM DTT, 0.01% BSA final concentration) was dispensed into 1536-well assay plates (Greiner, white solid-bottom medium-binding plates). Aliquots of compound (23 nL solubilized in DMSO) were transferred to the assay plates using a Kalypsys 1536-well pintool such that 11 concentrations with 1/3 dilutions ranging from 57.4 μM-0.97 nM are tested. One μL/well of GALK-galactose solution (5 nM GALK1, 100 μM galactose) in assay buffer was then added, yielding a final reaction volume of 4 μL/well. Following a 1-hour room temperature incubation, 4 μL of Kinase-Glo Plus detection reagent was added to provide an ATP-dependent luminescent readout (final assay volume: 8 μL/well).
Chain of recombinant human GALK1 (P51570 whole entry): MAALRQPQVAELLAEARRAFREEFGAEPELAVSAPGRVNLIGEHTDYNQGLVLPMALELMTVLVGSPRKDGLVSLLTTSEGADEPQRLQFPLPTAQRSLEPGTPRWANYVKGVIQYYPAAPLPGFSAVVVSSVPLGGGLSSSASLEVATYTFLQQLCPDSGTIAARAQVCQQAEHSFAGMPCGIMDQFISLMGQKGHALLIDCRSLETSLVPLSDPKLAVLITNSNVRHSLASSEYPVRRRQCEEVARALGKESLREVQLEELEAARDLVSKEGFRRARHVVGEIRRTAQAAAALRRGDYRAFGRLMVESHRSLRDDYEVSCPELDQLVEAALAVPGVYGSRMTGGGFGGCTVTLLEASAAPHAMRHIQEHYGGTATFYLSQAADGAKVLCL
Background: In Kinase-Glo more light means more ATP remaining.

The nature of data set [1]: aqueous kinetic solubility.
A short description of data set [2]: rat microsomal stability (RLM).
For the next data set, the target named is recombinant mouse GALK1 (Mus musculus, UniProt Q9R0N0). As to the kind of experiment: mGALK1 biochemical activity assay (Kinase-Glo Plus, ATP depletion). As to the method:
In vitro hGALK1 activity assays were performed as previously described. Liu et al., Bioorg. […] The biochemical assay was performed by coupling the activity of recombinant human or mouse GALK1 to the Kinase-Glo Plus luminescent ATP detection kit, using ATP depletion as a measure of GALK1 turnover. […] One μL/well of GALK-galactose solution (5 nM GALK1, 100 μM galactose) in assay buffer was then added, yielding a final reaction volume of 4 μL/well. Following a 1-hour room temperature incubation, 4 μL of Kinase-Glo Plus detection reagent was added to provide an ATP-dependent luminescent readout (final assay volume: 8 μL/well).

The next data set can be described thus: PAMPA permeability. As to conditions: PAMPA. In general terms: PAMPA measures passive passage across an artificial lipid membrane.
Setting [3] is: recombinant human GALK1, Kinase-Glo Plus ATP depletion, read-out: hGALK.
Where [4] appears, read: recombinant mouse GALK1, Kinase-Glo Plus ATP depletion, read-out: mGALK.
[5] abbreviates: recombinant mouse GALK1, Kinase-Glo Plus ATP depletion.
[6] abbreviates: Tables 2-15, 35 μM ATP, 100 μM galactose, 1 h, bracketed figure after some values is undefined and not reported, read-out: mGALK IC50.
Setting [7] is: Tables 2-15, 35 μM ATP, 100 μM galactose, 1 h, bracketed figure after some values (e.g. −1.2) is undefined and not reported, read-out: hGALK IC50.
The mark [8] stands for this setting: Tables 2-15, 35 μM ATP, 100 μM galactose, 1 h, bracketed figure after some values (e.g. −1.2) is undefined and not reported.
[9] abbreviates: recombinant human GALK1, Kinase-Glo Plus ATP depletion.
Where [10] appears, read: Tables 2-15, 35 μM ATP, 100 μM galactose, 1 h, bracketed figure after some values is undefined and not reported.

Like-named read-outs stand apart in the source and are kept apart here. A value given as a limit tells only on which side of the number the result lay.

Chain of recombinant mouse GALK1 (Q9R0N0 whole entry): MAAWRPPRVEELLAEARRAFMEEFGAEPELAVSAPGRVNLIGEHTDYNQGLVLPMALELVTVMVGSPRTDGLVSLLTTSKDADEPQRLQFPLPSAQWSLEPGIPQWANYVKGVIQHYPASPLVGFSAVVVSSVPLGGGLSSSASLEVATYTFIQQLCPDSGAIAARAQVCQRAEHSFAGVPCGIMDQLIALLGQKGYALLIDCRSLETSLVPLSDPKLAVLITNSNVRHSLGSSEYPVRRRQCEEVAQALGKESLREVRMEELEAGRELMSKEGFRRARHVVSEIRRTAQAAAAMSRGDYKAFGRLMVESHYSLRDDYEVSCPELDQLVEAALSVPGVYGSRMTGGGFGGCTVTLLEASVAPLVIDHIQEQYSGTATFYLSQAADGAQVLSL

Take `COc1ccc(C(=O)O)cc1NC(=O)C1=C(C)NC(Nc2nc3ccc(F)cc3o2)=NC1c1ccccc1Cl` (centres unmarked) [Compound 27, 3-(4-(2-chlorophenyl)-2-((6-fluorobenzo[d]oxazol-2-yl)amino)-6-methyl-1,4-dihydropyrimidine-5-carboxamido)-4-methoxybenzoic acid]: the IC50 at recombinant human GALK1 (setting [3]) came to 2.17 µM; at recombinant mouse GALK1 (setting [4]) it was 12.2 µM. Moreover, in data set [1], the “Sol.” value came to 53.3 µg/mL. Moreover, in data set [2] (microsomal half-life), the “Metab. Stabil. (m)” value was above 30 m.

Take `CNCCNC(=O)C1=C(C)NC(Nc2nc3ccc(F)cc3o2)=NC1c1ccccc1Cl` (centres unmarked) [Compound 33, 4-(2-chlorophenyl)-2-((6-fluorobenzo[d]oxazol-2-yl)amino)-6-methyl-N-(2-(methylamino)ethyl)-1,4-dihydropyrimidine-5-carboxamido]: the IC50 amounted to 15.3 µM on recombinant human GALK1 (setting [3]) and 6.11 µM on recombinant mouse GALK1 (setting [4]). In addition, the “Sol.” value in data set [1] was above 67 µg/mL. Further, in data set [2] (microsomal half-life), the “Metab. Stabil. (m)” value was above 30 m.

As for `CC1=C(C(=O)Nc2ccc(CO)cn2)C(c2ccccc2Cl)N=C(Nc2nc3ccc(F)cc3o2)N1` (centres unmarked) [Compound 42, 4-(2-chlorophenyl)-2-((6-fluorobenzo[d]oxazol-2-yl)amino)-N-(5-(hydroxymethyl)pyridin-2-yl)-6-methyl-1,4-dihydropyrimidine-5-carboxamide], the IC50 at recombinant human GALK1 (setting [3]) is 12.2 µM; at recombinant mouse GALK1 (setting [4]), 19.3 µM. Besides, the “Sol.” value in data set [1] was below 1 µg/mL. In addition, the “Metab. Stabil. (m)” value in data set [2] (microsomal half-life) is on record as above 30 m.

On to `CC1=C(C(=O)Nc2ccc(Cl)cn2)C(c2ccccc2Cl)N=C(Nc2nc3ccccc3o2)N1` (centres unmarked) [Compound 153, 2-(benzo[d]oxazol-2-ylamino)-4-(2-chlorophenyl)-N-(5-chloropyridin-2-yl)-6-methyl-1,4-dihydropyrimidine-5-carboxamide], for which the IC50 on recombinant human GALK1 (setting [3]) was determined as 4.85 µM. In data set [1] (aqueous kinetic solubility), the “Sol.” value was below 1 µg/mL. Further, in data set [2] (microsomal stability half-life), the “Metab. Stabil. (m)” value was found to be 30.79 m. In addition, on recombinant mouse GALK1 (setting [5]), the “mGALK (μM)” value was “in- active”.

In the case of `CC1=C(C(=O)Nc2ccccc2F)C(c2ccccc2Cl)N=C(Nc2nc3ccccc3o2)N1` (centres unmarked) [Compound 157, 2-(benzo[d]oxazol-2-ylamino)-N-(2-fluorophenyl)-4-(2-chlorophenyl)-6-methyl-1,4-dihydropyrimidine-5-carboxamide], the IC50 was determined as 7.69 µM at recombinant human GALK1 (setting [3]), 9.68 µM at recombinant mouse GALK1 (setting [6]) and 9.68 µM at recombinant mouse GALK1 (setting [4]). Further, the “Sol.” value in data set [1] (aqueous kinetic solubility) is below 1 µg/mL. For the same molecule, the “Metab. Stabil. (m)” value in data set [2] (microsomal stability half-life) is above 30 m.

Turning to `CC1=C(C(=O)Nc2cccc(F)c2)C(c2ccccc2Cl)N=C(Nc2nc3ccccc3o2)N1` (centres unmarked) [Compound 158, 2-(benzo[d]oxazol-2-ylamino)-N-(3-fluorophenyl)-4-(2-chlorophenyl)-6-methyl-1,4-dihydropyrimidine-5-carboxamide], the values for the IC50 at recombinant human GALK1 (setting [3]), on recombinant mouse GALK1 (setting [6]) and at recombinant mouse GALK1 (setting [4]) were 6.85 µM, 12.2 µM and 12.2 µM, respectively. Also, the “Sol.” value in data set [1] (aqueous kinetic solubility) was below 1 µg/mL. In addition, in data set [2] (microsomal stability half-life), the “Metab. Stabil. (m)” value is above 30 m.

For the molecule `CC1=C(C(=O)Nc2ccc(O)cc2)C(c2ccccc2Cl)N=C(Nc2nc3ccccc3o2)N1` (centres unmarked) [Compound 162, 2-(benzo[d]oxazol-2-ylamino)-N-(4-hydroxyphenyl)-4-(2-chlorophenyl)-6-methyl-1,4-dihydropyrimidine-5-carboxamide], the IC50 came out at 3.85 µM at recombinant human GALK1 (setting [3]), 9.68 µM on recombinant mouse GALK1 (setting [6]) and 9.68 µM at recombinant mouse GALK1 (setting [4]). The “Metab. Stabil. (m)” value in data set [2] (microsomal stability half-life) was above 30 m. Moreover, in “PAMPA permeability”, the “Perm. (1 × 10^−6 cm/sec)” value is reported as <14.5 1 × 10^−6 cm/sec.

For `CC1=C(C(=O)Nc2ccc(CN)cc2)C(c2ccccc2Cl)N=C(Nc2nc3ccccc3o2)N1` (centres unmarked) [Compound 169, N-(4-(aminomethyl)phenyl)-2-(benzo[d]oxazol-2-ylamino)-4-(2-chlorophenyl)-6-methyl-1,4-dihydropyrimidine-5-carboxamide], the IC50 on recombinant human GALK1 (setting [7]) worked out at 6.11 µM; at recombinant human GALK1 (setting [3]) it was 6.11 µM; at recombinant mouse GALK1 (setting [6]), 4.32 µM; on recombinant mouse GALK1 (setting [4]), 4.32 µM. In data set [1] (aqueous kinetic solubility), the “Sol.” value was 10.0 µg/mL. Also, the “Metab. Stabil. (m)” value in data set [2] (microsomal stability half-life) was determined as 72.47 m.

Regarding `COC(=O)Cc1nnc(NC(=O)C2=C(C)NC(Nc3nc4ccccc4o3)=NC2c2ccccc2Cl)s1` (centres unmarked) [Compound 174, methyl 2-(5-(2-(benzo[d]oxazol-2-ylamino)-4-(2-chlorophenyl)-6-methyl-1,4-dihydropyrimidine-5-carboxamido)-1,3,4-thiadiazol-2-yl)acetate], the IC50 on recombinant human GALK1 (setting [7]) and on recombinant human GALK1 (setting [3]) was 6.11 µM each time. Besides, in data set [1] (aqueous kinetic solubility), the “Sol.” value is below 1 µg/mL. Further, in data set [2] (microsomal stability half-life), the “Metab. Stabil. (m)” value was 8.0854 m.

Regarding `CC1=C(C(=O)Nc2cccc(C(N)=O)c2)C(c2ccccc2Cl)N=C(Nc2nc3ccccc3o2)N1` (centres unmarked) [Compound 177, 2-(benzo[d]oxazol-2-ylamino)-N-(3-carbamoylphenyl)-4-(2-chlorophenyl)-6-methyl-1,4-dihydropyrimidine-5-carboxamide], the IC50 is 7.69 µM on recombinant human GALK1 (setting [7]), 7.69 µM on recombinant human GALK1 (setting [3]), 17.2 µM at recombinant mouse GALK1 (setting [6]) and 17.2 µM on recombinant mouse GALK1 (setting [4]). Further, the “Sol.” value in data set [1] (aqueous kinetic solubility) is below 1 µg/mL. In data set [2] (microsomal stability half-life), the “Metab. Stabil. (m)” value is listed as above 30 m.

`CC1=C(C(=O)Nc2ccc(C(=O)N3CCOCC3)cc2)C(c2ccccc2Cl)N=C(Nc2nc3ccccc3o2)N1` (centres unmarked) [Compound 182, 2-(benzo[d]oxazol-2-ylamino)-4-(2-chlorophenyl)-6-methyl-N-(4-(morpholine-4-carbonyl)phenyl)-1,4-dihydropyrimidine-5-carboxamide]: the IC50 on recombinant human GALK1 (setting [7]) stood at 19.3 µM; at recombinant human GALK1 (setting [3]), 19.3 µM; at recombinant mouse GALK1 (setting [6]), 21.7 µM; on recombinant mouse GALK1 (setting [4]), 21.7 µM. Also, in data set [1] (aqueous kinetic solubility), the “Sol.” value was below 1 µg/mL. In addition, the “Metab. Stabil. (m)” value in data set [2] (microsomal stability half-life) was above 30 m.

Take `CC1=C(C(=O)Nc2cncc(C(=O)O)c2)C(c2ccccc2Cl)N=C(Nc2nc3ccccc3o2)N1` (centres unmarked) [Compound 202, 5-(2-(benzo[d]oxazol-2-ylamino)-4-(2-chlorophenyl)-6-methyl-1,4-dihydropyrimidine-5-carboxamido)nicotinic acid]: the IC50 at recombinant human GALK1 (setting [7]) and at recombinant human GALK1 (setting [3]) was 4.32 µM each time. Besides, the “Sol.” value in data set [1] (aqueous kinetic solubility) is 60.3 µg/mL. In addition, in data set [2] (microsomal stability half-life), the “Metab. Stabil. (m)” value was above 30 m.

With `CC1=C(C(=O)NCc2ccccc2Cl)C(c2ccccc2Cl)N=C(Nc2nc3ccccc3o2)N1` (centres unmarked) [Compound 216, 2-(benzo[d]oxazol-2-ylamino)-N-(2-chlorobenzyl)-4-(2-chlorophenyl)-6-methyl-1,4-dihydropyrimidine-5-carboxamide], the “hGALK IC50” value on recombinant human GALK1 (setting [8]) was “inactive”. In addition, the “hGALK (μM)” value on recombinant human GALK1 (setting [9]) is “in- active”. The “Sol.” value in data set [1] (aqueous kinetic solubility) was below 1 µg/mL. Besides, the “Metab. Stabil. (m)” value in data set [2] (microsomal stability half-life) came to 4.223 m. Further, the “mGALK IC50” value at recombinant mouse GALK1 (setting [10]) is “inactive”. For the same molecule, on recombinant mouse GALK1 (setting [5]), the “mGALK (μM)” value was “in- active”.

`CC1=C(C(=O)NCc2ccc(F)cc2)C(c2ccccc2Cl)N=C(Nc2nc3ccccc3o2)N1` (centres unmarked) [Compound 217]: the IC50 at recombinant human GALK1 (setting [7]) and at recombinant human GALK1 (setting [3]) was 7.69 µM each time. Moreover, the “Sol.” value in data set [1] (aqueous kinetic solubility) was below 1 µg/mL. Further, the “Metab. Stabil. (m)” value in data set [2] (microsomal stability half-life) was 11.34 m. Moreover, on recombinant mouse GALK1 (setting [10]), the “mGALK IC50” value was “inactive”. At recombinant mouse GALK1 (setting [5]), the “mGALK (μM)” value is listed as “in- active”.

Regarding `CC1=C(C(=O)NCc2ccccc2O)C(c2ccccc2Cl)N=C(Nc2nc3ccccc3o2)N1` (centres unmarked) [Compound 219, 2-(benzo[d]oxazol-2-ylamino)-4-(2-chlorophenyl)-N-(2-hydroxybenzyl)-6-methyl-1,4-dihydropyrimidine-5-carboxamide], the IC50 was determined as 6.85 µM on recombinant human GALK1 (setting [7]), 10.9 µM on recombinant mouse GALK1 (setting [6]) and 10.9 µM on recombinant mouse GALK1 (setting [4]). Also, in data set [2] (microsomal stability half-life), the “Metab. Stabil. (m)” value is recorded as 5.188 m. Besides, in “PAMPA permeability”, the “Perm. (1 × 10^−6 cm/sec)” value is listed as <19.3 1 × 10^−6 cm/sec.

Consider `CC1=C(C(=O)NCc2cn(C)cn2)[C@@H](c2ccccc2Cl)N=C(Nc2nc3ccccc3o2)N1` [Compound 236, (S)-2-(benzo[d]oxazol-2-ylamino)-4-(2-chlorophenyl)-6-methyl-N-((1-methyl-1H-imidazol-4-yl)methyl)-1,4-dihydropyrimidine-5-carboxamide], for which the “hGALK IC50” value at recombinant human GALK1 (setting [8]) is “inactive”. The “hGALK (μM)” value on recombinant human GALK1 (setting [9]) is “in- active”. The “Sol.” value in data set [1] (aqueous kinetic solubility) came out at 40.5 µg/mL. Further, the “Metab. Stabil. (m)” value in data set [2] (microsomal stability half-life) turned out to be 8.726 m. Further, the “mGALK IC50” value on recombinant mouse GALK1 (setting [10]) was “inactive”. Moreover, on recombinant mouse GALK1 (setting [5]), the “mGALK (μM)” value is “in- active”.
